Values quoted from earlier work as cited in the CATMoS acute toxicity set (Mansouri et al. 2021).
Values joined by “and” are separate entries in the source; they are usually repeats but may differ in a detail not shown here. Identical values can stand only once.

Experiment: rat acute oral toxicity
Settings: in vivo

Row | SMILES | LD50
1 | CN(C)C(=O)C(CCN1CCC(O)(c2ccc(Cl)c(C(F)(F)F)c2)CC1)(c1ccccc1)c1ccccc1 | 86 mg/kg
2 | CCCCCCCCCCCCCCCCCC(=O)OC[C@@H](O)[C@H]1OC[C@H](O)[C@H]1O | 31000 mg/kg
3 | CC(C)CCCCCOP(OCCCCCC(C)C)OCCCCCC(C)C | 9200 mg/kg
4 | CCCCN(CCO)CCCC | 1070 mg/kg
5 | C=C(Cl)C(Cl)=C(Cl)Cl | 421 mg/kg
6 | CCCCC(O)c1ccccc1 (configuration not stated) | 5430 mg/kg
7 | CNC(=O)N(C)N=O | 280 mg/kg
8 | CSP(SC)SC | 105 mg/kg
9 | CC(CC(=O)OC(C)(C)C)=NNc1ccc(N2CCOCC2)nn1 | 970 mg/kg
10 | C=CCC1(C(C)SCCCC)C(=O)N=C(O)NC1=O (configuration not stated) | 639 mg/kg
11 | CCCCN(CCCC)C(=O)CF | 37 mg/kg
12 | O=S(=O)(c1ccc(NC([C@H](O)[C@@H](O)[C@H](O)[C@H](O)CO)S(=O)(=O)O)cc1)c1ccc(NC([C@H](O)[C@@H](O)[C@H](O)[C@H](O)CO)S(=O)(=O)O)cc1 (some centres not stated) | 3000 mg/kg
13 | CCCN(COC(C)=O)N=O | 1000 mg/kg
14 | CN=NNc1ccc(I)cc1 | 499 mg/kg
15 | COC(=O)Nc1nc2ccccc2[nH]1 | 6400 mg/kg and 12500 mg/kg and 7500 mg/kg
16 | CCCC(=O)O[C@]1(C(=O)COC(=O)CC)CC[C@H]2[C@@H]3CCC4=CC(=O)CC[C@]4(C)[C@H]3[C@@H](O)C[C@@]21C | 5120 mg/kg
17 | O=S(=O)(Oc1ccc(Cl)cc1)c1ccccc1 | 1350 mg/kg
18 | CC(=O)O[C@H]1C[C@@H]2CC[C@@H]3[C@H](CC[C@@]4(C)[C@H]3C[C@H]([N+]3(C)CCCCC3)[C@@H]4OC(C)=O)[C@@]2(C)C[C@@H]1N1CCCCC1 | 455 mg/kg
19 | C=CCOCC1CO1 (configuration not stated) | 1600 mg/kg
20 | CC1(C)Cc2cccc(OC(=O)NCSc3ccc(Br)cc3)c2O1 | 25 mg/kg
21 | O=C1CN=C(c2ccccc2F)c2cc(Cl)ccc2N1CC1CC1 | 10100 mg/kg
22 | COc1ccc(CCNC[C@H](O)c2ccc(O)cc2)cc1OC | 9370 mg/kg
23 | O=C(O)CCCCCCCCC(=O)O | 14400 mg/kg
24 | CC(C)=CC1CC(C)CCO1 (configuration not stated) | 4300 mg/kg

Row | SMILES | LD50
25 | Cc1nnc(NS(=O)(=O)c2ccc(N)cc2)s1 | 3500 mg/kg
26 | CCNc1ccc(C(=C2C=CC(=[N+](C)C)C=C2)c2ccc(N(C)C)cc2)c2ccccc12 | 960 mg/kg
27 | CCOP(=S)(OCC)SC1CCOC1=O (configuration not stated) | 1000 mg/kg
28 | O=C1OC2(c3ccc(O)cc3Oc3cc(O)ccc32)c2ccccc21 | 6720 mg/kg
29 | OCCNCCOc1ccc(C(=C(c2ccccc2)C(F)(F)F)c2ccccc2)cc1 | 1400 mg/kg
30 | COC(=O)c1c(Cl)c(Cl)c(C(=O)OC)c(Cl)c1Cl | 3000 mg/kg
31 | CC(=O)N1CCN(c2ccc(OC[C@H]3CO[C@](Cn4ccnc4)(c4ccc(Cl)cc4Cl)O3)cc2)CC1 | 166 mg/kg
32 | CC(=O)c1ccc2c(c1)N(CCCN1CCOCC1)c1ccccc1S2 | 2500 mg/kg
33 | CSc1nc(-c2ccc(Cl)cc2)n(-c2ccc(Cl)cc2)n1 | 770 mg/kg
34 | CON=CC1=CCCN(C)C1 | 300 mg/kg
35 | CC1(C)[C@@H]2CC[C@@]1(C)[C@H](OC(=O)CSC#N)C2 | 1000 mg/kg
36 | FC(F)(F)c1nc2ccc(I)cc2[nH]1 | 96 mg/kg
37 | N#CC(C#N)=C1SCS1 | 75 mg/kg
38 | CCCC(C)C(c1ccc(O)cc1)C(C)C (configuration not stated) | 1900 mg/kg
39 | OCC1OC(n2cnc3c(S)ncnc32)C(O)C1O (configuration not stated) | 900 mg/kg
40 | NC(CO)C(=O)NNCc1ccc(O)c(O)c1O (configuration not stated) | 5300 mg/kg
41 | CCCCCCCCCCCCOCC(O)COS(=O)(O)=S (configuration not stated) | 1820 mg/kg
42 | CCOC(=O)c1ncn2c1CN(C)C(=O)c1cc(F)ccc1-2 | 4200 mg/kg
43 | CCOc1cc(Cc2cnc(N)nc2N)cc(OCC)c1-n1cccc1 | 1420 mg/kg
44 | O=C1C(Cl)C(CCl)CN1c1cccc(C(F)(F)F)c1 (configuration not stated) | 3650 mg/kg
45 | Cc1ccc(N=C=O)cc1 | 1600 mg/kg
46 | CC(C)N(Sc1nc2ccccc2s1)C(C)C | 5200 mg/kg
47 | C1=CCC=C1 | 113 mg/kg
48 | COc1cccc(C=Nc2c(C)n(C)n(-c3ccccc3)c2=O)c1 | 5600 mg/kg

Row | SMILES | LD50
49 | ClCC=CCCl | 89 mg/kg
50 | Cc1ccccc1NCCO | 2200 mg/kg
51 | O=c1[nH]c2ccc(Cl)cc2o1 | 1200 mg/kg
52 | S=C=Nc1ccc(Br)cc1 | 400 mg/kg
53 | CC1OC1(C)C (configuration not stated) | 2640 mg/kg
54 | CN(C)C(=N)NC#N | 3840 mg/kg
55 | NCCCCN | 463 mg/kg
56 | O=C(Cl)c1ccc(C(=O)Cl)cc1 | 2500 mg/kg
57 | CN1CC2=C(C1)CN(c1c(F)cc3c(=O)c(C(=O)O)cn(C4CC4)c3c1F)C2 | 1060 mg/kg
58 | NS(=O)(=O)c1cc2c(cc1Cl)CN(C1CCCCC1)C2=O | 6000 mg/kg
59 | C[N+]1(C)CCCCC1COC(=O)C(O)(c1ccccc1)c1ccccc1 (configuration not stated) | 5080 mg/kg
60 | CC(=CC(O)(C(F)(F)F)C(F)(F)F)CC(O)(C(F)(F)F)C(F)(F)F | 18 mg/kg
61 | O=S(=O)(O)c1cc(O)ccc1O | 7500 mg/kg
62 | CCOC(=S)C=Cc1ccc(OC)cc1 | 930 mg/kg
63 | CC(C)CC(C)Nc1ccc(Nc2ccccc2)cc1 (configuration not stated) | 3580 mg/kg
64 | CCOP(=S)(Oc1ccc([N+](=O)[O-])cc1)Oc1ccc([N+](=O)[O-])cc1 | 66.9 mg/kg
65 | CSc1ccc(OP(C)(C)=S)cc1C | 175 mg/kg
66 | CCOC(CN1CCN(CC(C)C(=O)c2ccccc2)CC1)c1ccccc1 (configuration not stated) | 763 mg/kg
67 | CC1(NC(N)=O)CCCC1 | 1200 mg/kg
68 | Nc1ccc(Cl)c([N+](=O)[O-])c1 | 400 mg/kg
69 | CC(=O)N1N=C(c2ccc(N)cc2)c2cc3c(cc2CC1C)OCO3 (configuration not stated) | 200 mg/kg
70 | CCOP(=S)(OCC)SCSCc1ccccc1 | 6 mg/kg
71 | C=CC(C)(CCC=C(C)C)OC(=O)C=Cc1ccccc1 (configuration not stated) | 9960 mg/kg
72 | OCc1ccccc1 | 1230 mg/kg

Row | SMILES | LD50
73 | CC(C)(C)C1CCC(O)CC1 (configuration not stated) | 4200 mg/kg
74 | CCCCC(CC)COC(CBr)c1cccc(Cl)c1 (configuration not stated) | 250 mg/kg
75 | CCOC(C1=NCC(O)CN1)c1ccccc1 (configuration not stated) | 1750 mg/kg
76 | CCOCOC(=O)c1ccccc1Nc1c(Cl)ccc(C)c1Cl | 307 mg/kg
77 | CN(Sc1ccc([N+](=O)[O-])cc1)C(=O)Oc1cccc2c1OC(C)(C)C2 | 25 mg/kg
78 | CN(N=O)C(C)(C)c1ccccc1 | 2100 mg/kg
79 | NCCOS(N)(=O)=O | 7460 mg/kg
80 | CN(C)N=Nc1ccc(Cl)cc1 | 362 mg/kg
81 | CN(C)CCCN1C(=O)c2cc([N+](=O)[O-])ccc2Oc2ccccc21 | 1690 mg/kg
82 | C=CCC1=C(C)[C@H](OC(=O)[C@H]2[C@H](C=C(C)C)C2(C)C)CC1=O (relative stereo) | 1320 mg/kg
83 | Cc1cc(Br)ccc1-n1c(C)nc2ccccc2c1=O | 240 mg/kg
84 | OCC1CC2CCC1C2 (configuration not stated) | 1600 mg/kg
85 | N#CC(Cl)CS(=O)(=O)c1ccccc1 (configuration not stated) | 540 mg/kg
86 | Cc1c(Cl)c(Cl)c(Cl)c2[nH]c(C(F)(F)F)nc12 | 6.49 mg/kg
87 | COc1ccc(C(Oc2ccccc2)C2=NCCCN2)cc1 (configuration not stated) | 1000 mg/kg
88 | CCOC(=O)CCCCCCCCC(C)c1ccc(I)cc1 (configuration not stated) | 2100 mg/kg
89 | OCCOCCOCCOCCOc1ccccc1 | 1260 mg/kg
90 | O=C(O)c1cccnc1Nc1cccc(C(F)(F)F)c1 | 250 mg/kg
91 | Nc1cccc2c(Cl)ccc(Cl)c12 | 3490 mg/kg
92 | COc1ccccc1OC | 890 mg/kg
93 | COC(CC(C)=O)OC | 6200 mg/kg
94 | O=c1c(O)c(-c2ccc(O)c(O)c2)oc2cc(O)cc(O)c12 | 161 mg/kg
95 | O=NN(CC(F)(F)F)CC(F)(F)F | 300 mg/kg
96 | CCN1CCC(=C2c3ccccc3CCc3ccccc32)C1C (configuration not stated) | 600 mg/kg

Row | SMILES | LD50
97 | CC12CCC(CC1=O)C2(C)C=O (configuration not stated) | 3100 mg/kg
98 | O=C1NC(=O)C(c2ccccc2)(c2ccccc2)N1S(=O)(=O)c1ccccc1 | 1700 mg/kg
99 | CCCC(=O)C1c2cccc(O)c2C(=O)c2c(O)cccc21 | 1580 mg/kg
100 | Cc1[nH]c2ccccc2c1C=CC1=[N+](C)c2ccccc2C1(C)C | 2450 mg/kg
101 | C1COCCOCCNCCOCCOCCN1 | 3400 mg/kg
102 | CC(C)N1C(=O)c2ccccc2NS1(=O)=O | 1100 mg/kg
103 | CCCCOCCOCCOCOCCOCCOCCCC | 1750 mg/kg
104 | O=[N+]([O-])c1cc(Cl)c(Cl)c(Cl)c1[N+](=O)[O-] | 425 mg/kg
105 | NC(=O)N1c2ccccc2C=Cc2ccccc21 | 1960 mg/kg
106 | CC=CC(C)C1(CC)C(=O)NC(=O)NC1=O (configuration not stated) | 20 mg/kg
107 | O=C(O)C(F)(F)C(F)F | 8570 mg/kg
108 | C[N+]1(CCF)[C@@H]2CC[C@H]1C[C@@H](OC(=O)C(O)(c1ccccc1)c1ccccc1)C2 (single isomer, unassigned) | 740 mg/kg
109 | FC(F)(F)c1nc2c(Cl)c(Cl)c(Cl)c(Cl)c2[nH]1 | 0.245 mg/kg
110 | CN=C(O)O/N=C1\COCCS1 | 37 mg/kg
111 | CC(=O)CNC(C)(C)Cc1ccc(Cl)cc1 | 250 mg/kg
112 | C=C(C)C1CC=C(C=NO)CC1 (configuration not stated) | 2500 mg/kg
113 | CCCCN(CCCC)N=O | 1200 mg/kg
114 | COC(=O)Cc1ccccc1 | 2550 mg/kg
115 | CNC(=S)N(C)C | 316 mg/kg
116 | CC(C)NCC(O)COc1cccc2cc(C(C)O)oc12 (configuration not stated) | 2130 mg/kg
117 | Cc1sc2ccccc2c1CC1=NCCN1 | 74 mg/kg
118 | CC(=O)ON(C(=O)OC(C)C)c1ccccc1 | 3400 mg/kg
119 | CNC1(c2ccccc2Cl)CCCCC1=O (configuration not stated) | 447 mg/kg
120 | C=C(C)C1CC=C(CO)CC1 (configuration not stated) | 2100 mg/kg

Row | SMILES | LD50
121 | FC(F)(F)c1cccc(-n2nc(OCCCN3CCCCCC3)c3cccnc32)c1 | 780 mg/kg
122 | COc1cc(Oc2ccc(Cl)cc2Cl)ccc1[N+](=O)[O-] | 18000 mg/kg
123 | CN(C)N=Nc1nc[nH]c1C(N)=O | 2150 mg/kg
124 | CC(=O)C=CC1C(C)C=C(C)CC1C (configuration not stated) | 5200 mg/kg
125 | CC(O)CN(CC(C)O)c1nc(Nc2ccc(S(=O)(=O)O)cc2)nc(Nc2ccc(/C=C/c3ccc(Nc4nc(Nc5ccc(S(=O)(=O)O)cc5)nc(N(CC(C)O)CC(C)O)n4)cc3S(=O)(=O)O)c(S(=O)(=O)O)c2)n1 (configuration not stated) | 12100 mg/kg
126 | COc1ccc(N)cc1Cl | 550 mg/kg
127 | CNC(=O)ON=C1SC(=NC(C)(C)C)SC1(C)C | 31.5 mg/kg
128 | OCCCc1ccccc1 | 2300 mg/kg
129 | c1cncc(C2=NCCC2)c1 | 1880 mg/kg
130 | CCOc1ccccc1OCCN[C@H](C)Cc1ccc(OC)c(S(N)(=O)=O)c1 | 650 mg/kg
131 | Cc1cc(C)n(SC(Cl)(Cl)Cl)n1 | 570 mg/kg
132 | CC(C)OC(C)C | 8470 mg/kg
133 | C1CN(SSSSN2CCOCC2)CCO1 | 4800 mg/kg
134 | C[C@H](CCC(=O)O)[C@H]1CC[C@H]2[C@@H]3[C@H](O)C[C@@H]4C[C@H](O)CC[C@]4(C)[C@H]3CC[C@]12C | 4000 mg/kg
135 | COP(=S)(OC)Oc1cc(Cl)c(I)cc1Cl | 2330 mg/kg
136 | Oc1ccc2ccccc2c1Cl | 2310 mg/kg
137 | C[N+](C)(C)CCBr | 190 mg/kg
138 | N#Cc1sc2c(=O)c3ccccc3c(=O)c=2sc1C#N | 638 mg/kg
139 | S=C1NCCC(COc2ccccc2)O1 (configuration not stated) | 2200 mg/kg
140 | CCCCCCCCCCCC(=O)OCC(O)CO (configuration not stated) | 52900 mg/kg
141 | CCNc1nc(NCC)nc(OC)n1 | 535 mg/kg
142 | CCCCCOC(CBr)c1ccc(C2CCCC2)cc1 (configuration not stated) | 250 mg/kg
